Measured values taken from patent publication US20060063736A1, “Compositions and methods for inhibiting mucin-type O-linked glycosylation” (priority 2004, published 2006).

Legend:
mppGalNAcT-3 = biological target: T1, mppGalNAcT-3 (Mus musculus, UniProt P70419); test: ELLA for ppGalNAcTs, mppGalNAcT-3; assay type: biochemical, murine; conditions: 20 μM UDP-GalNAc, 50 μM EA2 peptide 4
T1 construct: plasmids encoding truncated secreted ppGalNAcTs-1 to −5, -7, -10 and -11; made in house; host or cells: COS-7
T1 sequence (P70419 38-633 limits assumed): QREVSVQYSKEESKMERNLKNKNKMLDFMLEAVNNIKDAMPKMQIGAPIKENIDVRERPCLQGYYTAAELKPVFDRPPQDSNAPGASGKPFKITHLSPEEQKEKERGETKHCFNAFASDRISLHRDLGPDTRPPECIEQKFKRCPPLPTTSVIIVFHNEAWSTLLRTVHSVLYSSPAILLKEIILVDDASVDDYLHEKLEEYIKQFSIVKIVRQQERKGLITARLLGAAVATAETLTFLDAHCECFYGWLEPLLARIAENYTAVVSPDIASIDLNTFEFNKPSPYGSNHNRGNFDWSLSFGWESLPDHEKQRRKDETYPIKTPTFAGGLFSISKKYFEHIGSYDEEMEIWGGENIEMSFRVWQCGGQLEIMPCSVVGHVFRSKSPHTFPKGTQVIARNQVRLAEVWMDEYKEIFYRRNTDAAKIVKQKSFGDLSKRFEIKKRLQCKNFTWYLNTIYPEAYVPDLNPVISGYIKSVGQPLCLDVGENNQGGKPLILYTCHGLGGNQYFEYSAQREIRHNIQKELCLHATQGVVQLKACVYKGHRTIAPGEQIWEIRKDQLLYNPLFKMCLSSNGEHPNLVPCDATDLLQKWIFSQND
Procedure: COS-7 cells were transiently transfected with plasmids encoding truncated secreted ppGalNAcTs-1 to −5, -7, -10 and -11 as previously described. Hagen et al. (1997) J. Biol. Chem. 272:13843-13848. The crude conditioned medium was used as the enzyme source.
Standard reaction conditions for ppGalNAcT assays were as follows. The reaction mixture contained the following components in a final volume of 25 μL: 10 mM MnCl2, 40 mM sodium cacodylate, 40 mM β-mercaptoethanol, 0.1% Triton X-100, pH 6.5, 5 μL of conditioned media, and various concentrations of EA2 peptide 4, UDP-GalNAc and inhibitor. All uridine-based compounds were dissolved in dimethyl sulfoxide (DMSO). […] Reaction rates were linear over the period monitored (20-30 min).
96-Well NeutrAvidin-coated plates were prewashed 3 times with 200 μL of wash buffer (25 mM Tris, 150 mM NaCl, 0.1% bovine serum albumin (BSA) (w/v), and 0.05% Tween (v/v), pH 7.2). […] After 3 washes with 200 μL of PBS, bound HPA-HRP was quantified by the addition of 100 μL of TMB peroxide solution. […] HRP activity was terminated by the addition of 50 μL of 2 N H2SO4 and the resulting solution was analyzed at 450 nm using a UV/Vis microtiter plate reader. The amount of product generated by the ppGalNAcT was extrapolated from absorbance values using an equation fit to the standard curve derived from Origin 6.1 software.

rppGalNAcT-7 = biological target: T2, rppGalNAcT-7 (Rattus norvegicus, UniProt Q9R0C5); test: Radiolabel capture assay, rppGalNAcT-7; assay type: biochemical; conditions: MUC5AC glycopeptide
T2 construct: plasmids encoding truncated secreted ppGalNAcTs-1 to −5, -7, -10 and -11; made in house; host or cells: COS-7
T2 sequence (Q9R0C5 30-657 limits assumed): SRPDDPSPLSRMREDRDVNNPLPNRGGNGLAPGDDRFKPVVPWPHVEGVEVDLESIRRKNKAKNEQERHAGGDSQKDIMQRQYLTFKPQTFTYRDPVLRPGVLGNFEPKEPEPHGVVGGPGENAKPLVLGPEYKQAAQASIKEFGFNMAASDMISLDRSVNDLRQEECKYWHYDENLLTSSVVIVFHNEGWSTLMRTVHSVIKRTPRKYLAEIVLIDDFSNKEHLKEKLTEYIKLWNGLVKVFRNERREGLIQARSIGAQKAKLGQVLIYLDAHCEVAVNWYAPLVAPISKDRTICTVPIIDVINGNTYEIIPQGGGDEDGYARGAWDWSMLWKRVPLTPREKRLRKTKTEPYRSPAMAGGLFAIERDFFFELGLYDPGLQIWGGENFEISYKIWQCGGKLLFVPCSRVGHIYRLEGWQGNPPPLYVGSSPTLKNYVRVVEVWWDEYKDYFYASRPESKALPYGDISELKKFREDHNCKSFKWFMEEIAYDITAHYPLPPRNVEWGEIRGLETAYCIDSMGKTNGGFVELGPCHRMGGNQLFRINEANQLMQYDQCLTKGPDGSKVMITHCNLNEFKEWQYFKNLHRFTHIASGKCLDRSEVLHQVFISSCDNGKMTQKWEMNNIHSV
Procedure: Radiolabel capture assays using ^14C-labeled UDP-GalNAc were performed as previously described with various concentrations of 1-68A or 2-68A in 2% DMSO. Ten Hagen et al. (2001) J. Biol. Chem. 276:17395-17404.
Table 1. IC50 values for 1-68A and 2-68A with ppGalNAcTs-1 to −5, -7, -10, -11, β1-4GalT and α1-3GalT. The requirement of glycopeptides as substrates for ppGalNAcT-7 and -10 precluded the use of the ELLA, as both the substrate and product bind HPA-HRP. Thus, the radiolabel capture assay was employed to measure the IC50 values of 1-68A and 2-68A with ppGalNAcT-7 and -10 using MUC5AC (GTTPSPVPTTSTTSAP; SEQ ID NO:15) glycopeptide, previously shown to be substrate for both enzymes. Ten Hagen et al. (1999) J. Biol. Chem. 274:27867-27874; and Ten Hagen et al. (2001) J. Biol. Chem. 276:17395-17404. IC50 values of 1-68A and 2-68A with ppGalNAcT-5 were performed with α-FLAG purified enzyme and radiolabel capture assay, due to low activity and stability of the crude enzyme. m=murine, r=rattus.

[1] = test system: UDP-galactopyranose mutase; conditions: Scherman et al. (2003); cited from earlier work

Row | SMILES | IC50 (mppGalNAcT-3) | IC50 (rppGalNAcT-7) | identified in library screen against UDP-galactopyranose mutase [1]
1 | O=c1ccn([C@@H]2O[C@H](CON=Cc3ccc(O)c(O)c3O)[C@@H](O)[C@H]2O)c(=O)[nH]1 [1-68A] | 40 ± 2 µM | 22 ± 2 µM | not identified
2 | O=C(CON=Cc1ccc(O)c(O)c1O)NC[C@H]1O[C@@H](n2ccc(=O)[nH]c2=O)[C@H](O)[C@@H]1O [2-68A] | 38 ± 4 µM | 27 ± 2 µM | not identified
